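Briefly, cells in 96-well plates were exposed to five compound concentrations for 48 h, and endpoints were estimated by linear interpolation. The concentration for full growth arrest is given as TGI.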
Legend:
Assay in all cases: NCI-60 cell line screen, 48 h
LOX IMVI melanoma = test system: LOX IMVI melanoma
BT-549 breast = test system: BT-549 breast
786-0 renal = test system: 786-0 renal
A498 renal = test system: A498 renal
U251 CNS = test system: U251 CNS
ACHN renal = test system: ACHN renal
MDA-N = test system: MDA-N
OVCAR-5 ovarian = test system: OVCAR-5 ovarian
RPMI-8226 leukemia = test system: RPMI-8226 leukemia
HT29 colon = test system: HT29 colon
PC-3 prostate = test system: PC-3 prostate
RXF 393 renal = test system: RXF 393 renal
UACC-257 melanoma = test system: UACC-257 melanoma
A549 NSCLC = test system: A549 NSCLC
IGROV1 ovarian = test system: IGROV1 ovarian
SNB-75 CNS = test system: SNB-75 CNS
NCI/ADR-RES ovarian = test system: NCI/ADR-RES ovarian
UO-31 renal = test system: UO-31 renal
HL-60(TB) leukemia = test system: HL-60(TB) leukemia
HS 578T breast = test system: HS 578T breast
SN12C renal = test system: SN12C renal
SF-268 CNS = test system: SF-268 CNS
SK-OV-3 ovarian = test system: SK-OV-3 ovarian
HOP-62 NSCLC = test system: HOP-62 NSCLC
MCF7 breast = test system: MCF7 breast
NCI-H226 lung = test system: NCI-H226 lung
SK-MEL-2 melanoma = test system: SK-MEL-2 melanoma
CCRF-CEM leukemia = test system: CCRF-CEM leukemia
T-47D breast = test system: T-47D breast
OVCAR-3 ovarian = test system: OVCAR-3 ovarian
OVCAR-8 ovarian = test system: OVCAR-8 ovarian
NCI-H460 lung = test system: NCI-H460 lung
SK-MEL-28 melanoma = test system: SK-MEL-28 melanoma
SF-295 CNS = test system: SF-295 CNS
CAKI-1 renal = test system: CAKI-1 renal
NCI-H23 lung = test system: NCI-H23 lung
MDA-MB-231 breast = test system: MDA-MB-231 breast
HOP-92 NSCLC = test system: HOP-92 NSCLC
COLO 205 colon = test system: COLO 205 colon
OVCAR-4 ovarian = test system: OVCAR-4 ovarian
SK-MEL-5 melanoma = test system: SK-MEL-5 melanoma
HCT-15 colon = test system: HCT-15 colon
EKVX NSCLC = test system: EKVX NSCLC
M14 melanoma = test system: M14 melanoma
MOLT-4 leukemia = test system: MOLT-4 leukemia
SF-539 CNS = test system: SF-539 CNS
MALME-3M melanoma = test system: MALME-3M melanoma
SNB-19 CNS = test system: SNB-19 CNS
KM12 colon = test system: KM12 colon
K-562 leukemia = test system: K-562 leukemia
MDA-MB-435 = test system: MDA-MB-435
SR leukemia = test system: SR leukemia
TK-10 renal = test system: TK-10 renal
DU-145 prostate = test system: DU-145 prostate
HCT-116 colon = test system: HCT-116 colon
NCI-H522 lung = test system: NCI-H522 lung

`C(=N\c1nc2cc3sc(/N=C/c4cccs4)nc3cc2s1)/c1cccs1` was tested. Which TGI (LOX IMVI melanoma) did it give?
Its TGI is greater than 100 µM.

And the TGI (BT-549 breast)?
Its TGI is greater than 100 µM.

What about the TGI (786-0 renal) of the same compound?
Its TGI is greater than 100 µM.

What about the TGI (A498 renal) of the same compound?
Its TGI is greater than 100 µM.

And the TGI (U251 CNS)?
Its TGI is greater than 100 µM.

What about the TGI (ACHN renal) of the same compound?
Its TGI is greater than 100 µM.

And the TGI (MDA-N)?
The TGI was greater than 100 µM.

What about the TGI (OVCAR-5 ovarian) of the same compound?
The TGI was greater than 100 µM.

What about the TGI (RPMI-8226 leukemia) of the same compound?
Its TGI is greater than 100 µM.

What about the TGI (HT29 colon) of the same compound?
The TGI was greater than 100 µM.

What about the TGI (PC-3 prostate) of the same compound?
The TGI was greater than 100 µM.

What about the TGI (RXF 393 renal) of the same compound?
Its TGI is greater than 100 µM.

And the TGI (UACC-257 melanoma)?
Its TGI is greater than 100 µM.

What about the TGI (A549 NSCLC) of the same compound?
Its TGI is greater than 100 µM.

And the TGI (IGROV1 ovarian)?
Its TGI is greater than 100 µM.

And the TGI (SNB-75 CNS)?
Its TGI is greater than 100 µM.

What about the TGI (NCI/ADR-RES ovarian) of the same compound?
Its TGI is greater than 100 µM.

What about the TGI (UO-31 renal) of the same compound?
Its TGI is greater than 100 µM.

What about the TGI (HL-60(TB) leukemia) of the same compound?
The TGI was greater than 100 µM.

What about the TGI (HS 578T breast) of the same compound?
Its TGI is greater than 100 µM.

What about the TGI (SN12C renal) of the same compound?
Its TGI is greater than 100 µM.

And the TGI (SF-268 CNS)?
Its TGI is greater than 100 µM.

What about the TGI (SK-OV-3 ovarian) of the same compound?
Its TGI is greater than 100 µM.

And the TGI (HOP-62 NSCLC)?
Its TGI is greater than 100 µM.

What about the TGI (MCF7 breast) of the same compound?
The TGI was greater than 100 µM.

And the TGI (NCI-H226 lung)?
The TGI was 88.1 µM.

And the TGI (SK-MEL-2 melanoma)?
The TGI was greater than 100 µM.

And the TGI (CCRF-CEM leukemia)?
The TGI was greater than 100 µM.

What about the TGI (T-47D breast) of the same compound?
The TGI was greater than 100 µM.

And the TGI (OVCAR-3 ovarian)?
Its TGI is greater than 100 µM.

What about the TGI (OVCAR-8 ovarian) of the same compound?
Its TGI is greater than 100 µM.

And the TGI (NCI-H460 lung)?
The TGI was greater than 100 µM.

And the TGI (SK-MEL-28 melanoma)?
Its TGI is greater than 100 µM.

And the TGI (SF-295 CNS)?
The TGI was greater than 100 µM.

And the TGI (CAKI-1 renal)?
The TGI was greater than 100 µM.

And the TGI (NCI-H23 lung)?
Its TGI is greater than 100 µM.

What about the TGI (MDA-MB-231 breast) of the same compound?
Its TGI is greater than 100 µM.

What about the TGI (HOP-92 NSCLC) of the same compound?
The TGI was greater than 100 µM.

And the TGI (COLO 205 colon)?
Its TGI is 12.4 µM.

What about the TGI (OVCAR-4 ovarian) of the same compound?
Its TGI is greater than 100 µM.

And the TGI (SK-MEL-5 melanoma)?
Its TGI is greater than 100 µM.

And the TGI (HCT-15 colon)?
The TGI was greater than 100 µM.

What about the TGI (EKVX NSCLC) of the same compound?
The TGI was greater than 100 µM.

What about the TGI (M14 melanoma) of the same compound?
Its TGI is greater than 100 µM.

And the TGI (MOLT-4 leukemia)?
Its TGI is greater than 100 µM.

What about the TGI (SF-539 CNS) of the same compound?
The TGI was greater than 100 µM.

And the TGI (MALME-3M melanoma)?
Its TGI is greater than 100 µM.

And the TGI (SNB-19 CNS)?
Its TGI is greater than 100 µM.

And the TGI (KM12 colon)?
Its TGI is greater than 100 µM.

And the TGI (K-562 leukemia)?
Its TGI is greater than 100 µM.

And the TGI (MDA-MB-435)?
The TGI was greater than 100 µM.

What about the TGI (SR leukemia) of the same compound?
Its TGI is greater than 100 µM.

And the TGI (TK-10 renal)?
The TGI was greater than 100 µM.

What about the TGI (DU-145 prostate) of the same compound?
Its TGI is greater than 100 µM.

What about the TGI (HCT-116 colon) of the same compound?
Its TGI is greater than 100 µM.

And the TGI (NCI-H522 lung)?
Its TGI is greater than 100 µM.
